The subject of assay [1] is A-375. The assay can be described thus: Antiproliferative activity against A375 cells at 10 uM by MTT assay after 72 hrs. The settings on record: Homo sapiens, A-375, 72 h. It is filed as functional.
Assay [2] relates to A-431. The assay is described as follows: Antiproliferative activity against A431 cells at 10 uM by MTT assay after 72 hrs. The class given is functional. The settings on record: Homo sapiens, A-431, 72 h.
Assay [3] has as its system A-375. The assay is described as follows: Antiproliferative activity against A375 cells at 1 uM by MTT assay after 72 hrs. The settings on record: Homo sapiens, A-375, 72 h. The class given is functional. (Formazan colour is commonly taken as a measure of viable cells.)
In assay [4] the test system is PC-3. The assay can be described thus: Antiproliferative activity against PC3 cells at 10 uM by MTT assay after 72 hrs. The class given is functional. The settings on record: Homo sapiens, PC-3, 72 h.
Assay [5] in a line: Antiproliferative activity against Bcap37 cells at 5 uM by MTT assay after 72 hrs. The class given is functional, Homo sapiens.
Assay [6] deals with A-431. The assay is described as follows: Antiproliferative activity against A431 cells at 5 uM by MTT assay after 72 hrs. The class given is functional. The settings on record: Homo sapiens, A-431, 72 h.
Assay [7] has as its system PC-3. The assay can be described thus: Antiproliferative activity against PC3 cells at 5 uM by MTT assay after 72 hrs. It is filed as functional. The settings on record: Homo sapiens, PC-3, 72 h.
Assay [8] can be described thus: Antiproliferative activity against Bcap37 cells at 1 uM by MTT assay after 72 hrs. It is filed as functional, Homo sapiens.
The subject of assay [9] is A-375. The assay can be described thus: Antiproliferative activity against A375 cells at 5 uM by MTT assay after 72 hrs. The settings on record: Homo sapiens, A-375, 72 h. The class given is functional.
Assay [10] concerns PC-3. The assay is described as follows: Antiproliferative activity against PC3 cells at 1 uM by MTT assay after 72 hrs. It is filed as functional. The settings on record: Homo sapiens, PC-3, 72 h.
The nature of assay [11]: Antiproliferative activity against Bcap37 cells at 10 uM by MTT assay after 72 hrs. It is filed as functional, Homo sapiens.
Assay [12] deals with A-431. The assay can be described thus: Antiproliferative activity against A431 cells at 1 uM by MTT assay after 72 hrs. The class given is functional. The settings on record: Homo sapiens, A-431, 72 h.

As a reminder, the inhibition is the drop in the measured response relative to a control, in per cent.

On to `COc1ccc2nc(NC(c3ccccc3F)P(=O)(OC(C)C)OC(C)C)sc2c1` (stereo unspecified), for which the inhibition at 10 µM in the assay with A-375 [1] came out at 2.8%; with A-431 [2], 16.7%; with PC-3 [4] it was 18.5%; in assay [11], 50.4%. For the same compound, the inhibition at 1 µM in the assay with A-375 [3] was -4.3%; in assay [8], 39.7%; with PC-3 [10], -8.5%; with A-431 [12] it was -7.4%. In addition, the inhibition at 5 µM in [5] worked out at 43.2%; in the assay on A-431 [6], 7.5%; with PC-3 [7], 2.1%; in the assay with A-375 [9], 1.7%.

Regarding `CCOP(=O)(OCC)C(Nc1nc2c(C)cccc2s1)c1ccccc1F` (stereo unspecified), the inhibition at 10 µM in the assay on A-375 [1] is 9.2%; in the assay with A-431 [2], 35.3%; in the assay on PC-3 [4] it was 41.9%; in [11] it was 58.9%. The inhibition at 1 µM was -13.9% with A-375 [3], 35.8% in assay [8], 3.51% with PC-3 [10] and 17.7% in the assay on A-431 [12]. Also, the inhibition at 5 µM in assay [5] is 42.6%; with A-431 [6], 23.3%; with PC-3 [7] it was 22.9%; in the assay with A-375 [9], -6.1%.

With `CCCCOP(=O)(OCCCC)C(Nc1nc2c(C)cccc2s1)c1ccc(C(F)(F)F)cc1` (stereo unspecified), the inhibition at 10 µM in the assay on A-375 [1] is 31.5%; in the assay on A-431 [2], 57.4%; in the assay with PC-3 [4], 36%; in assay [11], 20.3%. The inhibition at 1 µM in the assay with A-375 [3] is -3.2%; in assay [8] it was 0.1%; with PC-3 [10], 5%; in the assay on A-431 [12], 37.7%. The inhibition at 5 µM was 9.2% in assay [5], 40.8% with A-431 [6], 31.6% in the assay on PC-3 [7] and 21.6% in the assay with A-375 [9].

As to `CCOP(=O)(OCC)C(Nc1nc2c(C)cccc2s1)c1ccc(C(F)(F)F)cc1` (stereo unspecified), the inhibition at 10 µM with A-375 [1] was 14.2%; with A-431 [2], 16.9%; with PC-3 [4], 49.3%; in assay [11], 16.7%. Also, the inhibition at 1 µM in the assay with A-375 [3] was -10.2%; in [8], -5.2%; in the assay with PC-3 [10], 12.6%; in the assay with A-431 [12], 0.36%. Also, the inhibition at 5 µM in assay [5] came to 9.8%; with A-431 [6], 2.06%; in the assay on PC-3 [7] it was 13.5%; with A-375 [9] it was 1.6%.

In the case of `CCOP(=O)(OCC)C(Nc1nc2ccc(OC)cc2s1)c1ccccc1F` (stereo unspecified), the inhibition at 10 µM in the assay on A-375 [1] was 15.7%; in the assay with A-431 [2] it was 22.1%; with PC-3 [4], 38.9%; in assay [11], 49.4%. For the same compound, the inhibition at 1 µM with A-375 [3] turned out to be 7.5%; in assay [8] it was 20.5%; in the assay on PC-3 [10], 16.8%; in the assay on A-431 [12] it was 4.5%. Also, the inhibition at 5 µM in [5] was determined as 34.5%; with A-431 [6] it was 12.3%; with PC-3 [7] it was 22.5%; in the assay on A-375 [9], 7.9%.

As to `CCCOP(=O)(OCCC)C(Nc1nc2ccc(OC)cc2s1)c1ccccc1F` (stereo unspecified), the inhibition at 10 µM in the assay with A-375 [1] was determined as 23.8%; in the assay on A-431 [2] it was 58.1%; with PC-3 [4], 28.7%; in assay [11] it was 27.1%. Also, the inhibition at 1 µM is 10.3% in the assay on A-375 [3], 21.3% in assay [8], 5% in the assay on PC-3 [10] and 35.3% in the assay with A-431 [12]. Besides, the inhibition at 5 µM in assay [5] was 25.1%; in the assay with A-431 [6] it was 49.2%; in the assay on PC-3 [7], 15.8%; in the assay with A-375 [9], 13.9%.

As for `CCOP(=O)(OCC)C(Nc1nc2ccc(OC)cc2s1)c1ccc(F)cc1` (stereo unspecified), the inhibition at 10 µM with A-375 [1] was 34.5%; in the assay on A-431 [2], 31.2%; in the assay on PC-3 [4] it was 49.5%; in assay [11], 49.9%. The inhibition at 1 µM with A-375 [3] came to 8%; in assay [8], 10%; with PC-3 [10], 32.1%; in the assay with A-431 [12], 11.2%. Also, the inhibition at 5 µM in [5] is 39%; in the assay on A-431 [6], 20.9%; in the assay on PC-3 [7] it was 41%; in the assay on A-375 [9], 10.9%.

`COP(=O)(OC)C(Nc1nc2c(C)cccc2s1)c1ccc(C(F)(F)F)cc1` (stereo unspecified): the inhibition at 10 µM in the assay with A-375 [1] came to 20.8%; in the assay on A-431 [2], 47.3%; in the assay on PC-3 [4] it was 8.9%; in assay [11] it was 2.5%. For the same compound, the inhibition at 1 µM with A-375 [3] is 1.8%; in assay [8] it was -13.2%; with PC-3 [10], 4%; in the assay on A-431 [12], 22.1%. In addition, the inhibition at 5 µM in assay [5] was -0.8%; in the assay on A-431 [6], 26%; in the assay with PC-3 [7] it was 4.6%; in the assay with A-375 [9] it was 19.2%.

Regarding `CCCOP(=O)(OCCC)C(Nc1nc2c(C)cccc2s1)c1ccccc1F` (stereo unspecified), the inhibition at 10 µM in the assay with A-375 [1] was 4.3%; with A-431 [2], 31.7%; with PC-3 [4], 43.3%; in [11], 21.7%. For the same compound, the inhibition at 1 µM with A-375 [3] is -0.2%; in assay [8], -18.9%; in the assay with PC-3 [10] it was 21.7%; in the assay with A-431 [12], 15.9%. Besides, the inhibition at 5 µM was found to be 0.8% in assay [5], 27.3% in the assay on A-431 [6], 29.4% with PC-3 [7] and 4.8% with A-375 [9].

Take `CCCCOP(=O)(OCCCC)C(Nc1nc2ccc(OC)cc2s1)c1ccccc1F` (stereo unspecified): the inhibition at 10 µM came out at 17.4% with A-375 [1], 28.8% in the assay with A-431 [2], 13.2% in the assay with PC-3 [4] and 44.2% in assay [11]. Besides, the inhibition at 1 µM is -6.2% with A-375 [3], 23.6% in assay [8], -6.6% in the assay on PC-3 [10] and -3.7% in the assay on A-431 [12]. Further, the inhibition at 5 µM in assay [5] is 38.2%; in the assay with A-431 [6], 5.4%; in the assay on PC-3 [7], 5.3%; in the assay with A-375 [9], 3.5%.

In the case of `COc1ccc2nc(NC(c3ccccc3F)P(=O)(OC)OC)sc2c1` (stereo unspecified), the inhibition at 10 µM in the assay with A-375 [1] is 11.4%; with A-431 [2], 8.64%; with PC-3 [4], 33.3%; in assay [11], 25.1%. Also, the inhibition at 1 µM with A-375 [3] stood at 4.3%; in assay [8], 11.9%; in the assay with PC-3 [10], 21.4%; in the assay with A-431 [12], 1.9%. The inhibition at 5 µM in [5] came to 17.8%; in the assay with A-431 [6], 7.9%; in the assay with PC-3 [7] it was 26.6%; in the assay on A-375 [9] it was 10.1%.

Regarding `Cc1cccc2sc(NC(c3ccc(C(F)(F)F)cc3)P(=O)(OC(C)C)OC(C)C)nc12` (stereo unspecified), the inhibition at 10 µM turned out to be 9.1% in the assay on A-375 [1], 29.5% in the assay with A-431 [2], 25.9% in the assay on PC-3 [4] and 22.7% in assay [11]. Also, the inhibition at 1 µM is -1.3% in the assay with A-375 [3], -0.7% in assay [8], 6.3% in the assay on PC-3 [10] and 17.3% with A-431 [12]. For the same compound, the inhibition at 5 µM in assay [5] was 11.2%; with A-431 [6], 20.5%; with PC-3 [7], 15.3%; in the assay on A-375 [9] it was 8.6%.

As for `CCCCOP(=O)(OCCCC)C(Nc1nc2c(C)cccc2s1)c1ccccc1F` (stereo unspecified), the inhibition at 10 µM with A-375 [1] came to 32.1%; with A-431 [2], 72.1%; in the assay on PC-3 [4] it was 89.1%; in assay [11], 38.1%. For the same compound, the inhibition at 1 µM in the assay on A-375 [3] amounted to 11.2%; in [8], 10%; with PC-3 [10], 52.1%; with A-431 [12], 32.1%. Moreover, the inhibition at 5 µM in assay [5] was determined as 29%; in the assay on A-431 [6], 49%; in the assay with PC-3 [7], 86%; in the assay on A-375 [9] it was 25.6%.

Values taken from ChEMBL document CHEMBL1139665, “Synthesis, X-ray crystallographic analysis, and antitumor activity of N-(benzothiazole-2-yl)-1-(fluorophenyl)-O,O-dialkyl-alpha-aminophosphonates” (2006).
